Laboratory results published in paper PMC9469100, “Turning Nonselective Inhibitors of Type I Protein Arginine Methyltransferases into Potent and Selective Inhibitors of Protein Arginine Methyltransferase 4 through a Deconstruction–Reconstruction and Fragment-Growing Approach” (Journal of Medicinal Chemistry, 2022).

Key:
Format in all cases: biochemical
[1] = molecular target: T1, EZH2 complex (Homo sapiens, UniProt Q15910); assay: HotSpot KMT activity assay, EZH2; settings: mean ± SD, two experiments, read-out: % enzyme residual activ. after treatment with 12h, 1 µM, EZH2
T1 construct: including EZH2 residues 2–746, AEBP2 2–517; His (N); purchased Reaction Biology Corporation
T1 sequence (Q15910 2-746): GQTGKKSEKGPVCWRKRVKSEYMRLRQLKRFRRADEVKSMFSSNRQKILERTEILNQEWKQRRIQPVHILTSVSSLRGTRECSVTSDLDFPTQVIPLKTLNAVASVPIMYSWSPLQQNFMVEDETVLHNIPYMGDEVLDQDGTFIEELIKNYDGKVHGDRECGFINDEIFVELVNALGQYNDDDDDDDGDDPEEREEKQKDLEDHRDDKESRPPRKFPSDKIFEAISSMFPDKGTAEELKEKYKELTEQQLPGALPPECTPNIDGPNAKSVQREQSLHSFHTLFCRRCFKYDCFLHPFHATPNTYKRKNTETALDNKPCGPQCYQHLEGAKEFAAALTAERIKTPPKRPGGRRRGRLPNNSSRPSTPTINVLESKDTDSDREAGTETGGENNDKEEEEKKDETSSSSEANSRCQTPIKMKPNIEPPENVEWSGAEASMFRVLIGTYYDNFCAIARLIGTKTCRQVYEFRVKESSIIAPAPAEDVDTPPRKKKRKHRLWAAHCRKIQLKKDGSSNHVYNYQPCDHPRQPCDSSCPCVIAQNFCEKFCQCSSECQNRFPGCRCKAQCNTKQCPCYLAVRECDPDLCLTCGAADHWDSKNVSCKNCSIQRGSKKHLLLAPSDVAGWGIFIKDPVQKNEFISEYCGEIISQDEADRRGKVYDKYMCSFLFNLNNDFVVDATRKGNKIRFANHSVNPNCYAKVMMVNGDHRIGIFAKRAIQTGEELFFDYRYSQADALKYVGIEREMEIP
T1 sequence (Q6ZN18 2-517 partner limits assumed): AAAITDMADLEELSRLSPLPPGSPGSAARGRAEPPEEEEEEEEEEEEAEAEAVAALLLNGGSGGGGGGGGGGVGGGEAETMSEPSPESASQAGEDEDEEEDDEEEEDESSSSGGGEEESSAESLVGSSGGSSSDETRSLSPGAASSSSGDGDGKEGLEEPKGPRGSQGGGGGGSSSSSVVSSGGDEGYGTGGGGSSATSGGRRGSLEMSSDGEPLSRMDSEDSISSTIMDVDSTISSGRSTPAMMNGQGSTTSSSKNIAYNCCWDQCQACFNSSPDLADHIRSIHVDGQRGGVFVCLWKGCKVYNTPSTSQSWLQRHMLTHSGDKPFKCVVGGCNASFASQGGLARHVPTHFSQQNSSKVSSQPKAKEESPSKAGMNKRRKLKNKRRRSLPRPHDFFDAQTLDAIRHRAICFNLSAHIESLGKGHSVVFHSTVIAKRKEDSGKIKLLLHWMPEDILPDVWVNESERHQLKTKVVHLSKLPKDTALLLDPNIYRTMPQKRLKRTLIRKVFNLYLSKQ
T1 sequence (O75530 2-441 partner limits assumed): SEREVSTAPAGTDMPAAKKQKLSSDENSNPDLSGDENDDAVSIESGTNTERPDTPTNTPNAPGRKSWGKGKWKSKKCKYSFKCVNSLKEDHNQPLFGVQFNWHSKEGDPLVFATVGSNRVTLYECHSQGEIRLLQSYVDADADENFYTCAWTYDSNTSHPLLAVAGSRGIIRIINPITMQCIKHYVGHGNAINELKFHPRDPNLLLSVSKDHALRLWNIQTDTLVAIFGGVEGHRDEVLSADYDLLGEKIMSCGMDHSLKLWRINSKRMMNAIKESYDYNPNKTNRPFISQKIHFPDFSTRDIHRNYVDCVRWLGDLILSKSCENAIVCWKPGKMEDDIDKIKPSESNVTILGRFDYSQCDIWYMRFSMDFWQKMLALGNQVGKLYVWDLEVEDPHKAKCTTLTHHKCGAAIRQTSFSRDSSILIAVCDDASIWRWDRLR
T1 sequence (Q09028 2-425 partner limits assumed): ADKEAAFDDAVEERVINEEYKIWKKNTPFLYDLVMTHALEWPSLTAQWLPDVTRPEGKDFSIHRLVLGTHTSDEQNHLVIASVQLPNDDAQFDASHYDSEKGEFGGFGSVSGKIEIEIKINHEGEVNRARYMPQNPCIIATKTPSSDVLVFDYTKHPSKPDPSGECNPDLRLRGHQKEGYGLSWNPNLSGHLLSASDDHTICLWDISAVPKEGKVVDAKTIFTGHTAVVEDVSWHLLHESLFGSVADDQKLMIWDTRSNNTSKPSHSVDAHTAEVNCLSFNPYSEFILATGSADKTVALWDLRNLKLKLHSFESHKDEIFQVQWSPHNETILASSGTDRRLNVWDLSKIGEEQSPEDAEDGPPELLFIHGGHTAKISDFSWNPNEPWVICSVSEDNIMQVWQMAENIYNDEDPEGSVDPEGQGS
T1 sequence (Q15022 2-739 partner limits assumed): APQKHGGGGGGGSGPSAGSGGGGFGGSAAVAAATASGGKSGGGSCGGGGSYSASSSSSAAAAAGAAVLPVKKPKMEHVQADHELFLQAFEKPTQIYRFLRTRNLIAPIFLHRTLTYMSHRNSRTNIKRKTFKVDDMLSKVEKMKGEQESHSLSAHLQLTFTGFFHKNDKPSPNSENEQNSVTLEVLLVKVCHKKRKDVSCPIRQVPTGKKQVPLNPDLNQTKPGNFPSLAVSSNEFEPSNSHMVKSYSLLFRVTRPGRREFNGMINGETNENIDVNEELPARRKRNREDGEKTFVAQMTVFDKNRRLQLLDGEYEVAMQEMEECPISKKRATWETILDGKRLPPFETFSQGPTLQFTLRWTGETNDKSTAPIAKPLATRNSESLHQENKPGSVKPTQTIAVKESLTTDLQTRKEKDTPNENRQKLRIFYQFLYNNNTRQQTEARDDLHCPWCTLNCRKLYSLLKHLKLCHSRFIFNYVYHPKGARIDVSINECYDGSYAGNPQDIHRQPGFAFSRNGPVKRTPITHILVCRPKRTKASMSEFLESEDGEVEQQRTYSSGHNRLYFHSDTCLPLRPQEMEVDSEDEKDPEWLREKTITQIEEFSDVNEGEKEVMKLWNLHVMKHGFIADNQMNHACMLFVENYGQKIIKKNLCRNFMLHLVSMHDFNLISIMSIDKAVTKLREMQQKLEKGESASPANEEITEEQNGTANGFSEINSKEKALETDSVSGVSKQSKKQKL
Description: (§1) Then, ^3H-SAM (final concentration 1 μM) was delivered into the reaction mixture to initiate the reaction. After incubation for 60 min at 30 °C, the reaction mixture was delivered to filter-paper for detection (as assessed by scintillation). […] No inhibitor control (DMSO) was considered as 100% enzyme activity. Data were analyzed using Excel and GraphPad Prism 6.0 software (GraphPad Software Inc., San Diego, CA). Values obtained for each compound are mean ± SD determined for two separate experiments.

[2] = molecular target: G9a (Homo sapiens, UniProt Q96KQ7); assay: HotSpot KMT activity assay, G9a; settings: mean ± SD, two experiments, read-out: % enzyme residual activ. after treatment with 12h, 1 µM, G9a
G9a, sequence (Q96KQ7 whole entry): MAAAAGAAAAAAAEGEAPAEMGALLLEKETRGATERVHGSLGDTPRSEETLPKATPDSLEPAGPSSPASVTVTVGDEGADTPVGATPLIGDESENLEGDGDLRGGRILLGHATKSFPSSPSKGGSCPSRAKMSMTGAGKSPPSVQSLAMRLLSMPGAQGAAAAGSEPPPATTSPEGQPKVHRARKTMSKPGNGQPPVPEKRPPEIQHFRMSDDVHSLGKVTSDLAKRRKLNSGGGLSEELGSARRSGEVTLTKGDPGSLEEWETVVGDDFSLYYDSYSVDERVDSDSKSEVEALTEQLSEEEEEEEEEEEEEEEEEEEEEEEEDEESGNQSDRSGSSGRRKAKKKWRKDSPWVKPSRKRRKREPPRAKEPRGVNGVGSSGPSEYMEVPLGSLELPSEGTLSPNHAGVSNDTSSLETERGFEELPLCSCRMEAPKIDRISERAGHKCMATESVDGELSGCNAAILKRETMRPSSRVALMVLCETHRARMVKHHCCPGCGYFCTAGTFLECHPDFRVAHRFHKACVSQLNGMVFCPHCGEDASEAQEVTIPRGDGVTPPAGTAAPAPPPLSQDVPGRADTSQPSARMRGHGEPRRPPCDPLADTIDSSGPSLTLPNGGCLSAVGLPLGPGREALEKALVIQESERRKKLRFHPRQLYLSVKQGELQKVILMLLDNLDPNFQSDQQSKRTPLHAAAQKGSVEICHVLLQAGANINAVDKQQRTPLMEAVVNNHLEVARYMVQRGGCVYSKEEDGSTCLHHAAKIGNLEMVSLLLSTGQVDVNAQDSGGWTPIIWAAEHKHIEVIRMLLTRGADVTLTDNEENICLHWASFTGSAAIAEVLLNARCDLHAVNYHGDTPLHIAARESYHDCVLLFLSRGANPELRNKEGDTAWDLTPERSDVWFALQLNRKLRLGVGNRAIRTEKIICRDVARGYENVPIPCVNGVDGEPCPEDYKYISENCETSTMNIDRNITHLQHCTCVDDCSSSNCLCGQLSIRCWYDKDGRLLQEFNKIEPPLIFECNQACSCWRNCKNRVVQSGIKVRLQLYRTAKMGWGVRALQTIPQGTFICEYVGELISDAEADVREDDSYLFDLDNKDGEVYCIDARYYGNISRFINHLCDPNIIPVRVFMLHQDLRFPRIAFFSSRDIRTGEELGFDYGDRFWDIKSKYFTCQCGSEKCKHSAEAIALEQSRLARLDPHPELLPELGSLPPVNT
Description: as §1

[3] = molecular target: T2, SUV420H1 (Homo sapiens, UniProt Q4FZB7); assay: HotSpot KMT activity assay, SUV420H1; settings: 1 µM; mean ± SD, two experiments; read-out: % enzyme residual activ. after treatment with 12h, 1 µM, SUV420H1
T2 construct: SUV420H1-tv2 (residues 2–393); C-terminus; N-terminal GST-tag; GST (N); purchased Reaction Biology Corporation
Description: as §1

[4] = molecular target: T3, SET7/9 (Homo sapiens, UniProt Q8WTS6); assay: HotSpot KMT activity assay, SET7/9; settings: 1 µM; mean ± SD, two experiments; read-out: % enzyme residual activ. after treatment with 12h, 1 µM, SET7/9
T3 construct: SET7/9 (residues 2–366, C-terminus); with a N-terminal GST-tag and a C-terminal His-tag; GST (N); His (C); purchased Reaction Biology Corporation
T3 sequence (Q8WTS6 2-366): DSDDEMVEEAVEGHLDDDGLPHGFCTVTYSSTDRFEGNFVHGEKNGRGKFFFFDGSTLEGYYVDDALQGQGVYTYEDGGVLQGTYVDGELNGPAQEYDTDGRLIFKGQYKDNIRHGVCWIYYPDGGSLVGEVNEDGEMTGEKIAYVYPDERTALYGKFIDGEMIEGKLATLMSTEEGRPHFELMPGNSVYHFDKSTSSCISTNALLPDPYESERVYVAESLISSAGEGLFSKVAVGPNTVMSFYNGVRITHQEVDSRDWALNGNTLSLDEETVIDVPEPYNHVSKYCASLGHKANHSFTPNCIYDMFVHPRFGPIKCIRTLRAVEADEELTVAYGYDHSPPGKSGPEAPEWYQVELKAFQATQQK
Description: as §1

[5] = molecular target: SMYD3 (Homo sapiens, UniProt Q9H7B4); assay: HotSpot KMT activity assay, SMYD3; settings: 1 µM; mean ± SD, two experiments; read-out: % enzyme residual activ. after treatment with 12h, 1 µM, SMYD3
SMYD3, sequence (Q9H7B4 whole entry): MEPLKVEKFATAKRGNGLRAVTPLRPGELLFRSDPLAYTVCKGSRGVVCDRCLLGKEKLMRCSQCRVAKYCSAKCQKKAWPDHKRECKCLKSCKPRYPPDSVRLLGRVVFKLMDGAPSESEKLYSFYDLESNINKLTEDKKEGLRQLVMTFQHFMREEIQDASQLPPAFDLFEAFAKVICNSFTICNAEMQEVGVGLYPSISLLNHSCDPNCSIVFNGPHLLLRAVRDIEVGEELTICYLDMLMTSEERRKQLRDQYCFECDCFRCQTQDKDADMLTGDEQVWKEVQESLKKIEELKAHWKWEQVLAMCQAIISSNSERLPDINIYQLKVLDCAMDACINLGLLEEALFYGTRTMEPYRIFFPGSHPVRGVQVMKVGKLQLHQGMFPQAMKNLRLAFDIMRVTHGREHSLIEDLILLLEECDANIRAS
Description: as §1

[6] = molecular target: T4, MLL1 complex (Homo sapiens, UniProt Q03164); assay: HotSpot KMT activity assay, MLL1; settings: 1 µM; mean ± SD, two experiments; read-out: % enzyme residual activ. after treatment with 12h, 1 µM, MLL1
T4 construct: including MLL1 residues 3745–3969, C-terminus; His (N); purchased Reaction Biology Corporation
Description: as §1

[7] = molecular target: T5, SETD8 (Homo sapiens, UniProt Q9NQR1); assay: HotSpot KMT activity assay, SETD8; settings: 1 µM; mean ± SD, two experiments; read-out: % enzyme residual activ. after treatment with 12h, 1 µM, SETD8
T5 construct: SETD8 (residues 190–352, C-terminus); N-terminal His-tag; His (N); purchased Reaction Biology Corporation
Description: as §1

COC(=O)c1cc(O)c2cc(NC(=O)NCCCCNC(=N)NC/C=C/[C@H]3O[C@@H](n4cnc5c(N)ncnc54)[C@H](O)[C@@H]3O)ccc2c1 [12h, Methyl 6-(3-(4-(3-((E)-3-((2R,3S,4R,5R)-5-(6-Amino-9H-purin-9-yl)-3,4-dihydroxytetrahydrofuran-2-yl)allyl)guanidino)butyl)ureido)-4-hydroxy-2-naphthoate]
remaining activity at 1 µM [1]: 84.4 ± 5.51% | remaining activity at 1 µM [2]: 102 ± 1.67% | remaining activity at 1 µM [3]: 104 ± 1.13% | remaining activity at 1 µM [4]: 112 ± 2.25% | remaining activity at 1 µM [5]: 72.83 ± 0.68% | remaining activity at 1 µM [6]: 102 ± 3.11% | remaining activity at 1 µM [7]: 130 ± 6.36%
